{"source": "patent EP1649856A2", "about": "“Use of pimecrolimus for selective immunomodulation” (Novartis AG, priority 2001, dated 2002)", "key": {"[1]": {"test_system": "mixed-lymphocyte reaction", "assay": "mixed-lymphocyte reaction (MLR) assay", "type": "cell-based", "details": "Mus musculus", "excerpt": "In addition to the IL-2 reporter gene assay, the concentration of immunosuppressants, such as pimecrolimus and FK506 can be measured by the mixed-lymphocyte reaction (see Meo, The MLR in the Mouse\", Immunological Methods, Lefkovits and Pemis, Eds., p. 227 Academic Press, NY)."}, "[2]": {"type": "in vitro ADME, human", "excerpt": "Pimecrolimus, when applied topically, permeates less through human (and animal) skin than, for example, FK506 and corticosteroids by factors of 9 and 60-120, respectively, indicating a lower potential to enter the systemic circulation and thus to exert systemic side effects. As is well-known, glucocorticoids are non-selective agents and are therefore associated with many systemic actions and a wide variety of side effects, whether applied topically or systemically. This is in contrast to pimecrolimus."}, "[3]": {"test_system": "allergic contact dermatitis (ACD)", "assay": "Mouse model of allergic contact dermatitis (ACD)", "type": "in vivo", "details": "oral, same doses"}, "[4]": {"test_system": "SCID mice reconstituted with CD4^+CD45RB^HI T cells", "assay": "SCID-IBD mouse model, treatment from day 1 for 4 weeks", "type": "in vivo", "details": "for loss of original BW: 4 weeks post-T cell transfer (controls lost 15-18%); for colitis, histological inflammation of colon (score 0-8): 29 days", "excerpt": "A well-established animal model for IBD exists (see Leach et al., Am. J. Pathol., Vol. 148, No. 5, pp. 1503-1515 (1996), and Powrie et al., Int. Immunol., Vol. 5, No. 11, pp. 1461-1471 (1993)). It is known that the transfer of syngeneic, naive T lymphocytes (CD4^+CD45RB^HI) into SCID mice results in a severe colitis and wasting disease, SCID-IBD. Histopathologically, features of both CD and UC are represented in this model which has been used throughout the 1990s to bring the understanding of the pathoetiology of this disease of immune dysregulation in man to its present status. There is no other animal model of IBD which is considered relevant for the human disease, both in mechanism and in validity of clinical treatment.\nIn this study, SCID mice reconstituted with CD4^+CD45RB^HI T lymphocytes were used. These mice are known to develop chronic colitis with characteristics similar to human IBD, as described above.\nIn this study, SCID mice were reconstituted with 2 x 10^5 CD4^+CD45RB^HI T cells and then treated with pimecrolimus (30, 60 and 100 mg/kg/day) or vehicle daily p.o. for 4 weeks. […] BW was monitored throughout. On termination, blood was withdrawn, spleen, mesenteric lymph nodes (MLN) and colon were removed. Serum haptoglobin levels were measured (ELISA), colitis was assessed histologically and lymphocyte and neutrophil numbers were calculated from FACS analysis of blood, spleen and MLN cell suspensions.\nIn order to determine the efficacy of ASM981 treatment in preventing intestinal mucosal damage in SCID-IBD mice, a histological examination of the colon sections was performed according to defined morphological parameters. All colon sections were assessed according to a scheme awarding degrees of severity governed by the extent of cell infiltration and inflammation with a score of 8 being the maximum."}, "[5]": {"test_system": "SCID mice reconstituted with CD4^+CD45RB^HI T cells", "assay": "SCID-IBD mouse model, delayed treatment of established IBD", "type": "in vivo", "details": "100 mg/kg/day p.o. started after 7, 14 or 21 days, until 41 days", "protocol": "In order to determine if pimecrolimus is also effective once IBD is established, SCID mice were treated with pimecrolimus at a dose level of 100 mg/kg/day at days 7, 14 or 21 following the transfer of the disease causing CD4^+ T cells. The study was terminated after 41 days, i.e., the mice were treated for 33, 26 and 19 days, respectively.\nSCID mice were reconstituted with 2 x 10^5 CD4^+CD45RB^HI T cells and treatment with pimecrolimus (100 mg/kg/day p.o.) started after 7, 14 or 21 days and continued daily until 41 days. Treatment with the placebo formulation started after 7 days. BW was monitored once a week for the first 2 weeks and then twice weekly. Data are expressed as mean percent BW relative to the weight on day 0 ± s.e.m. for n = 9 (PBS), n = 8 (ASM(7d) & ASM(21d) and n = 7 (ASM(14d) and placebo) mice per group. PBS refers to the non-transferred mice which have been pooled with regard to percent BW values since no treatment dependent changes were found. p<0.01 relative to the placebo-treated group at 41 days.\nSCID mice were reconstituted with 2 x 10^5 CD4^+CD45RB^HI T cells and treatment with pimecrolimus (100 mg/kg/day p.o.) started after 7, 14 or 21 days and continued daily until 41 days. Treatment with the placebo formulation started after 7 days. On day 41, mice were killed and serum kept for haptoglobin assay. Data are expressed as mean haptoglobin (mg/mL) ± s.e.m. for n = 9 (PBS), n = 8 (ASM(7d)) and n = 7 (ASM(14d), ASM(21d) and placebo) mice per group. […]\nSCID mice were reconstituted with 2 x 10^5 CD4^+CD45RB^HI T cells and treatment with pimecrolimus (100 mg/kg/day p.o.) started after7, 14 or 21 days and continued daily until 41 days. […] Data are expressed as the mean neutrophil numbers, calculated from the percent positive cells and the total cell number per sample, ± s.e.m. for n mice (n in each bar) per group. p<0.05 calculated relative to the placebo-treated group."}, "pulmonary eosinophilia": {"test_system": "pulmonary eosinophilia", "assay": "Antigen-induced pulmonary eosinophilia in actively sensitized rats", "type": "in vivo, Brown Norway Rats", "details": "given orally as a microemulsion or dissolved in Neoral placebo", "excerpt": "Another study looked at the effects of oral administration of pimecrolimus on antigen-induced pulmonary eosinophilia in actively sensitized Brown Norway Rats."}, "blood cells": {"test_system": "blood cells", "details": "30 mg b.i.d. oral", "description": "Pimecrolimus was evaluated as treatment for psoriasis using an oral dose of 60 mg (30 mg b.i.d) during a 4-week clinical study. The cohort included 10 patients; 8 received the treatment and 2 received a placebo. Blood samples were collected before the first administration to establish the gene expression baseline and on days 13 or 14 after treatment with pimecrolimus or placebo and submitted to gene expression analysis in order to gain insights into the mechanisms of action of the compound.\nThe RNA from blood samples drawn from each patient in the study was extracted and tested on individual DNA microarrays, thus allowing, for each patient, a comparison of gene expression before and after pimecrolimus treatment. […] Genes that were consistently modulated were sorted in functional categories."}, "[6]": {"details": "dose range 30-100 mg/kg/day p.o."}}, "data": [{"smiles": "CC[C@@H]1/C=C(\\C)C[C@H](C)C[C@H](OC)[C@H]2O[C@@](O)(C(=O)C(=O)N3CCCC[C@H]3C(=O)O[C@H](/C(C)=C/[C@@H]3CC[C@H](Cl)[C@H](OC)C3)[C@H](C)[C@@H](O)CC1=O)[C@H](C)C[C@@H]2OC", "note": "[pimecrolimus, 33-epichloro-33-desoxy-ascomycin]", "values": [{"measurement": "IC50", "setting": "[1]", "result": 9, "unit": "nM"}, {"measurement": "factor by which it permeates less through skin than FK506", "setting": "[2]", "result": 9}, {"measurement": "factor by which it permeates less through skin than corticosteroids", "setting": "[2]", "result": "60-120"}, {"measurement": "efficacy compared with FK506", "setting": "[3]", "result": "equipotent"}, {"measurement": "loss of original BW", "setting": "[4]; 30 mg/kg/day p.o.", "result": 7.1, "unit": "%"}, {"measurement": "colitis, histological inflammation of colon (score 0-8)", "setting": "[4]; 30 mg/kg/day p.o.", "result": "moderate to severe"}, {"measurement": "block of neutrophil infiltration into the colon (MPO activity)", "setting": "[4]; 60 mg/kg/day p.o.", "result": 72, "unit": "%"}, {"measurement": "loss of original BW", "setting": "[4]; 60 mg/kg/day p.o.", "result": 8.8, "unit": "%"}, {"measurement": "colitis, histological inflammation of colon (score 0-8)", "setting": "[4]; 60 mg/kg/day p.o.", "result": "moderate"}, {"measurement": "mice with macroscopically normal feces (diarrhea)", "setting": "[4]; 100 mg/kg/day p.o.", "result": "Approximately half of the mice"}, {"measurement": "neutrophil infiltration into the colon (MPO activity)", "setting": "[4]; 100 mg/kg/day p.o.", "result": "completely blocked"}, {"measurement": "loss of original BW", "setting": "[4]; 100 mg/kg/day p.o.", "result": 3.2, "unit": "%"}, {"measurement": "colitis, histological inflammation of colon (score 0-8)", "setting": "[4]; 100 mg/kg/day p.o.", "result": "only mildly inflamed colons"}, {"measurement": "reduction of Haptoglobin production (serum)", "setting": "[4]; [6]", "result": "68-92%"}, {"measurement": "reduction of blood neutrophilia", "setting": "[4]; [6]", "result": "85-96%"}, {"measurement": "reduction of spleen neutrophilia", "setting": "[4]; [6]", "result": "74-83%"}, {"measurement": "lymphocyte numbers in MLN", "setting": "[4]; up to 100 mg/kg/day p.o.", "result": "significant reduction"}, {"measurement": "lymphocyte numbers in blood or spleen", "setting": "[4]; up to 100 mg/kg/day p.o.", "result": "did not significantly affect"}, {"measurement": "acute phase response (serum haptoglobin) in established IBD", "setting": "[5]", "result": "inhibits the ongoing acute phase response"}, {"measurement": "blood and spleen neutrophilia in established/ongoing colitis", "setting": "[5]", "result": "strongly inhibits"}, {"measurement": "loss of BW in established/ongoing colitis", "setting": "[5]", "result": "highly-effective in reversing the loss of BW"}, {"measurement": "antigen-induced pulmonary eosinophilia", "setting": "pulmonary eosinophilia", "result": "effective"}, {"measurement": "toxic effect in the expression profile", "setting": "blood cells", "result": "No obvious toxic effect"}, {"measurement": "expression of genes involved in asthma and IBD (RANTES, GALECTIN-3, Thromboxane A2 receptor, Glutathione peroxidase)", "setting": "blood cells; days 13 or 14 vs baseline", "result": "specifically and significantly down-regulated"}, {"measurement": "expression of inflammatory mediators (Leukotriene A4 hydrolase, prostaglandin endoperoxide synthase)", "setting": "blood cells; days 13 or 14 vs baseline", "result": "strongly down regulate"}]}]}
